Read-outs that look alike come from different tables or passages of the source.
Legend:
K. pneumoniae NCTC-9632 = assay: Antimicrobial activity test: MIC by the agar plate dilution method, K. pneumoniae NCTC-9632; type: cell-based; conditions: inoculum 1×10^6 cells/ml
Outline: (§1)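 Agar plate dilution MIC against each listed strain; inocula adjusted to 1×10^6 cells/ml (O.D. 600 mμ: 0.07-0.16).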

P. mirabilis 1287 = assay: Antimicrobial activity test: MIC by the agar plate dilution method, P. mirabilis 1287; type: cell-based
Outline: as §1

S. aureus FDA-209-p = assay: Antimicrobial activity test: MIC by the agar plate dilution method, S. aureus FDA-209-p; type: cell-based, Staphylococcus aureus; conditions: inoculum 1×10^6 cells/ml
Outline: as §1

M. morganii ATCC-25830 = assay: Antimicrobial activity test: MIC by the agar plate dilution method, M. morganii ATCC-25830; type: cell-based; conditions: inoculum 1×10^6 cells/ml
Outline: as §1

E. coli NIHJ = assay: Antimicrobial activity test: MIC by the agar plate dilution method, E. coli NIHJ; type: cell-based; conditions: inoculum 1×10^6 cells/ml
Description: In order to investigate the in vitro activity of the under-mentioned compounds against various bacteria, the minimal inhibitory concentration (MIC) values were determined by the agar plate dilution method [see Chemotherapy, 22, 1126-1128 (1974)].
Each test inoculum was adjusted to 1×10^6 cells/ml (O.D., 600 mμ: 0.07-0.16).

P. aeruginosa NCTC-10490 = assay: Antimicrobial activity test: MIC by the agar plate dilution method, P. aeruginosa NCTC-10490; type: cell-based; conditions: inoculum 1×10^6 cells/ml
Outline: as §1

S. marcescens IFO-12648 = assay: Antimicrobial activity test: MIC by the agar plate dilution method, S. marcescens IFO-12648; type: cell-based
Outline: as §1

E. coli No. 29 = assay: Antimicrobial activity test: MIC by the agar plate dilution method, E. coli No. 29; type: cell-based
Outline: as §1

[1] = P. mirabilis 1287, inoculum 1×10^6 cells/ml
[2] = S. marcescens IFO-12648, inoculum 1×10^6 cells/ml
[3] = E. coli No. 29, inoculum 1×10^6 cells/ml

In the case of “7-[2-(2-Chloroacetamidothiazol-4-yl)-2-ethoxyiminoacetamido]-3-[(1,3,4-thiadiazol-2-yl)thiomethyl-]-Δ^3 -O-2-isocephem-4-carboxylic acid (syn-isomer) [Example 28]”, the MIC (K. pneumoniae NCTC-9632) was 0.05 µg/mL, the MIC (P. mirabilis 1287; [1]) was no more than 0.025 µg/mL and the MIC (S. aureus FDA-209-p) was 0.78 µg/mL. It also gave an MIC (M. morganii ATCC-25830) of no more than 0.025 µg/mL, an MIC (E. coli NIHJ) of no more than 0.025 µg/mL and an MIC (P. aeruginosa NCTC-10490) of 1.56 µg/mL. For the same substance, the MIC (S. marcescens IFO-12648; [2]) was 0.2 µg/mL and the MIC (E. coli No. 29; [3]) was no more than 0.025 µg/mL.

Work on “7-[2-(2-Formamidothiazol-4-yl)-2-methylthiomethoxyiminoacetamido]-3-[(1,3,4-thiadiazol-2-yl)thiomethyl]-Δ^3 -O-2-isocephem-4-carboxylic acid (syn-isomer) [Example 45]” yielded an MIC (K. pneumoniae NCTC-9632) of 0.39 µg/mL, an MIC (P. mirabilis 1287; [1]) of 0.2 µg/mL and an MIC (S. aureus FDA-209-p) of 0.39 µg/mL. The MIC (M. morganii ATCC-25830) was 0.39 µg/mL, the MIC (E. coli NIHJ) was 0.39 µg/mL and the MIC (P. aeruginosa NCTC-10490) was 6.25 µg/mL. The MIC (S. marcescens IFO-12648) was 0.78 µg/mL and the MIC (E. coli No. 29) was 0.39 µg/mL.

In the case of “7-[2-(2-Trifluoroacetamidothiazol-4-yl)-2methoxyiminoacetamido]-3-[(carbamoyloxy)methyl]-Δ^3 -O-2-isocephem-4-carboxylic acid (syn-isomer) [No. 5]”, the MIC (K. pneumoniae NCTC-9632) was 0.2 µg/mL, the MIC (P. mirabilis 1287) was 0.39 µg/mL and the MIC (S. aureus FDA-209-p) was greater than 100 µg/mL. For the same substance, the MIC (M. morganii ATCC-25830) was 0.2 µg/mL, the MIC (E. coli NIHJ) was 0.78 µg/mL and the MIC (P. aeruginosa NCTC-10490) was 100 µg/mL. For the same substance, the MIC (S. marcescens IFO-12648) was 0.39 µg/mL and the MIC (E. coli No. 29) was 0.78 µg/mL.

With “(6S,7S)-7-[2-(2-Aminothiazol-4-yl)-2cyanomethoxyiminoacetamido]-3-[(1,3,4- thiadiazol-2-yl)thiomethyl]-Δ^3 -O-2-isocephem-4carboxylic acid trifluoroacetate (syn-isomer) [No. 16]” the MIC (K. pneumoniae NCTC-9632) was 0.39 µg/mL, the MIC (P. mirabilis 1287; [1]) was 0.1 µg/mL and the MIC (S. aureus FDA-209-p) was 0.39 µg/mL. It also gave an MIC (M. morganii ATCC-25830) of 0.05 µg/mL, an MIC (E. coli NIHJ) of 0.39 µg/mL and an MIC (P. aeruginosa NCTC-10490) of 0.39 µg/mL. For the same substance, the MIC (S. marcescens IFO-12648) was 0.78 µg/mL and the MIC (E. coli No. 29; [3]) was 0.2 µg/mL.

With “Benzhydryl 7-[2-(2-aminothiazol-4-yl)-2-cyclopropylmethyloxyiminoacetamido]-3-[(1,2,3-thiadiazol-5-yl)thiomethyl]-Δ^3 -O-2-isocephem-4-carboxylate (syn-isomer) [Example 56]” the MIC (K. pneumoniae NCTC-9632) was 0.39 µg/mL, the MIC (P. mirabilis 1287; [1]) was 0.2 µg/mL and the MIC (S. aureus FDA-209-p) was 0.05 µg/mL. The MIC (M. morganii ATCC-25830) was 0.05 µg/mL, the MIC (E. coli NIHJ) was 0.2 µg/mL and the MIC (P. aeruginosa NCTC-10490) was 0.39 µg/mL. For the same substance, the MIC (S. marcescens IFO-12648) was 0.78 µg/mL and the MIC (E. coli No. 29; [3]) was 0.1 µg/mL.

In the case of “Benzhydryl 7-[2-(2-formamidothiazol-4-yl)-2-ethoxyiminoacetamido]-3-[(1,3,4-thiadiazol-2-yl)thiomethyl]-Δ^3 -O-2-isocephem-4-carboxylate (syn-isomer) [Example 30]”, the MIC (K. pneumoniae NCTC-9632) was 0.2 µg/mL, the MIC (P. mirabilis 1287; [1]) was 0.2 µg/mL and the MIC (S. aureus FDA-209-p) was 0.1 µg/mL. For the same substance, the MIC (M. morganii ATCC-25830) was 0.39 µg/mL, the MIC (E. coli NIHJ) was 0.05 µg/mL and the MIC (P. aeruginosa NCTC-10490) was 25 µg/mL. It also gave an MIC (S. marcescens IFO-12648) of 0.39 µg/mL and an MIC (E. coli No. 29; [3]) of 0.1 µg/mL.

Work on “Benzyl 7-[2-(2-chloroacetamidothiazol-4-yl)-2-ethoxyiminoacetamido]-3-[(1,3,4-thiadiazol-2-yl)thiomethyl]-Δ^3 -O-2-isocephem-4-carboxylate (syn-isomer) [Example 27]” yielded an MIC (K. pneumoniae NCTC-9632) of 0.2 µg/mL, an MIC (P. mirabilis 1287; [1]) of 0.1 µg/mL and an MIC (S. aureus FDA-209-p) of 0.1 µg/mL. It also gave an MIC (M. morganii ATCC-25830) of 0.1 µg/mL, an MIC (E. coli NIHJ) of 0.10 µg/mL and an MIC (P. aeruginosa NCTC-10490) of 0.2 µg/mL. For the same substance, the MIC (S. marcescens IFO-12648; [2]) was 0.2 µg/mL and the MIC (E. coli No. 29; [3]) was 0.1 µg/mL.

From patent US4831026A, “2-oxa-isocephem compounds, compositions containing same and processes of using” (Otsuka Pharmaceutical Co., Ltd., priority 1985, dated 1989)
